Counter-ions that a name gives are not always drawn.
SMILES | melting point [°C]
CC(C)(CNc1ccc(C#N)cn1)NCC(=O)N1CCC[C@H]1C#N [Ex. 2A, 1-[[[2-[(5-cyano-2-pyridinyl)amino]-1,1-dimethylethyl]amino]acetyl]-2-cyano-(S)-pyrrolidine] | 47 to 49
N#CC1CCCN1C(=O)CNC1CCC(Oc2ccc(Cl)cc2)CC1 (as salt: hydrochloride) [Ex. 2FF, 1-[[4-[4-chlorophenoxy)cyclohexyl]amino]acetyl]-2-cyano-(S)-pyrrolidine] | 232 to 235
N#C[C@@H]1CCCN1C(=O)CNC1CCC(Nc2nc3ccccc3s2)CC1 (stereo partly drawn) (as salt: hydrochloride) [Ex. 2V, 1-[[[4-[(2-benzothiazolyl)amino]cyclohexyl]amino]acetyl]-2-cyano-(S)-pyrrolidine] | 246 to 248
COc1ccc(-c2csc(N3CCC(NCC(=O)N4CCC[C@H]4C#N)CC3)n2)cc1 (as salt: hydrochloride) [Ex. 2MM] | 154 to 156
N#C[C@@H]1CCCN1C(=O)CN[C@H]1CC[C@H](NS(=O)(=O)c2cccs2)CC1 (as salt: hydrochloride) [Ex. 2AA] | 75 to 77
N#C[C@@H]1CCCN1C(=O)CNC1CCC(Nc2ccc(C(F)(F)F)cn2)CC1 (some centres unmarked) (as salt: hydrochloride) | 270 to 273
CCCCCC12CCC(NCC(=O)N3CCC[C@H]3C#N)(CC1)CC2 (as salt: hydrochloride) [Ex. 2DD, 1-[[(4-pentylbicyclo[2.2.2]oct-1-yl)amino]acetyl]-2-cyano-(S)-pyrrolidine] | 99 to 102
CC(C)(CNc1ncccc1C(F)(F)F)NCC(=O)N1CCC[C@H]1C#N (as salt: hydrochloride) [Ex. 2G, 1-[[[2-[(3-trifluoromethyl-2-pyridinyl)amino]-1,1-dimethylethyl]amino]acetyl]-2-cyano-(S)-pyrrolidine] | 112 to 114
CC(C)(CNC(=O)Nc1ccc(Cl)cc1)NCC(=O)N1CCC[C@H]1C#N (as salt: hydrochloride) [Ex. 2K, 1-[[[2-[[[(4-chlorophenyl)amino]carbonyl]amino]-1,1-dimethylethyl]amino]acetyl]-2-cyano-(S)-pyrrolidine] | 112 to 114
N#C[C@@H]1CCCN1C(=O)CNC1CCN(S(=O)(=O)c2ccc(C(F)(F)F)cc2)CC1 (as salt: hydrochloride) [Ex. 4C] | > 300
N#C[C@@H]1CCCN1C(=O)CNC1CCN(S(=O)(=O)c2ccccc2)CC1 (as salt: hydrochloride) [Ex. 4D, 1-[[(1-phenylsulfonyl-4-piperidinyl)amino]acetyl]-2-cyano-(S)-pyrrolidine] | > 300
CC(C)(CNc1ncc(Cl)cc1Cl)NCC(=O)N1CCC[C@H]1C#N (as salt: hydrochloride) [Ex. 2F, 1-[[[2-[(3,5-dichloro-2-pyridinyl)amino]-1,1-dimethylethyl]amino]acetyl]-2-cyano-(S)-pyrrolidine] | 108 to 110
N#Cc1ccc(NC2CCC(NCC(=O)N3CCC[C@H]3C#N)CC2)nc1 (stereo partly drawn) (as salt: hydrochloride) [Ex. 2L, 1-[[[4-[(5-cyano-2-pyridinyl)amino]cyclohexyl]amino]acetyl]-2-cyano-(S)-pyrrolidine] | 242 to 244
N#C[C@@H]1CCCN1C(=O)CN[C@H]1CC[C@H](Nc2ncccc2C(F)(F)F)CC1 (as salt: hydrochloride) [Ex. 2P, 1-[[4-[[(3-trifluoromethyl-2-pyridinyl)amino]cyclohexyl]amino]acetyl]-2-cyano-(S)-pyrrolidine] | 289 to 292
CC(C)(CNC(=O)C(C)(C)C)NCC(=O)N1CCC[C@H]1C#N (as salt: hydrochloride) [Ex. 2H, 1-[[[2-[(2,2-dimethyl-1-oxopropyl)amino]-1,1-dimethylethyl]amino]acetyl]-2-cyano-(S)-pyrrolidine] | 225 to 227
N#C[C@@H]1CCCN1C(=O)CNC1CCN(C(=O)C2CCCCC2)CC1 (as salt: hydrochloride) [Ex. 4A, 1-[[[1-(cyclohexylcarbonyl)-4-piperidinyl]amino]acetyl]-2-cyano-(S)-pyrrolidine] | > 300
N#C[C@@H]1CCCN1C(=O)CN[C@H]1CC[C@H](NC(=O)c2ccc(Cl)cc2)CC1 (as salt: hydrochloride) [Ex. 2T, 1-[[[4-[(4-chlorobenzoyl)amino]cyclohexyl]amino]acetyl]-2-cyano-, (S)-pyrrolidine] | 260 to 263
N#C[C@@H]1CCCN1C(=O)CN[C@H]1CC[C@H](NS(=O)(=O)c2ccc(C(F)(F)F)cc2)CC1 (as salt: hydrochloride) [Ex. 2Z, 1-[[[4-[[[(4-trifluoromethyl)phenyl]sulfonyl]amino]cyclohexyl]amino]acetyl]-2-cyano-(S)-pyrrolidine] | 135 to 137
CC(C)N(C(=O)N1CCC(NCC(=O)N2CCC[C@H]2C#N)CC1)C(C)C (as salt: hydrochloride) [Ex. 2JJ, 1-[[[1-[(diisopropylamino)carbonyl]-4-piperidinyl]amino]acetyl]-2-cyano-(S)-pyrrolidine] | 82 to 84

SMILES | melting point [°C]
N#C[C@@H]1CCCN1C(=O)CNC1CCC(NS(=O)(=O)c2ccccc2)CC1 (stereo partly drawn) (as salt: hydrochloride) [Ex. 2M, 1-[[[4-[(phenylsulfonyl)amino]cyclohexyl]amino]acetyl]-2-cyano-(S)-pyrrolidine] | 120 to 122
N#C[C@@H]1CCCN1C(=O)CN[C@H]1CC[C@H](Oc2cccc(C(F)(F)F)c2)CC1 (as salt: hydrochloride) [Ex. 2GG, 1-[[[4-[(3-trifluoromethyl)phenoxy]cyclohexyl]amino]acetyl]-2-cyano-(S)-pyrrolidine] | 120 to 122
CC(C)(C)C(=O)NC1CCC(NCC(=O)N2CCC[C@H]2C#N)CC1 (stereo partly drawn) (as salt: hydrochloride) [Ex. 2U, 1-[[[4-[(2,2-dimethyl-1-oxopropyl)amino]cyclohexyl]amino]acetyl]-2-cyano-(S)-pyrrolidine] | 290 to 294
N#C[C@@H]1CCCN1C(=O)CNC1CCN(c2nc(-c3ccc(Cl)cc3)cs2)CC1 (as salt: hydrochloride) [Ex. 2LL] | 160 to 162
N#C[C@@H]1CCCN1C(=O)CNC1CCC(NC(=O)C2CCCCC2)CC1 (stereo partly drawn) (as salt: hydrochloride) [Ex. 2X, 1-[[[4-[(cyclohexylcarbonyl)amino]cyclohexyl]amino]acetyl]-2-cyano-(S)-pyrrolidine] | 189 to 190
CC(C)(CNc1ncccc1Cl)NCC(=O)N1CCC[C@H]1C#N (as salt: hydrochloride) [Ex. 2D, 1-[[[2-[(3-chloro-2-pyridinyl)amino]-1,1-dimethylethyl]amino]acetyl]-2-cyano-(S)-pyrrolidine] | 144 to 146
CC(C)(CNC(=O)c1ccc(Cl)cc1)NCC(=O)N1CCC[C@H]1C#N (as salt: hydrochloride) [Ex. 2I, 1-[[[2-[(4-chlorobenzoyl)amino]-1,1-dimethylethyl]amino]acetyl]-2-cyano-(S)-pyrrolidine] | 121 to 123
CC(C)(CNc1ccc(C(F)(F)F)cn1)NCC(=O)N1CCC[C@H]1C#N (as salt: hydrochloride) [Ex. 2B, 1-[[[2-[(5-trifluoromethyl-2-pyridinyl)amino]-1,1-dimethylethyl]amino]acetyl]-2-cyano-(S)-pyrrolidine] | 170 to 172
N#Cc1ccc(NC2CCC(NCC(=O)N3CCC[C@H]3C#N)CC2)cc1 (stereo partly drawn) (as salt: hydrochloride) [Ex. 2W, 1-[[[4-[(4-cyanophenyl)amino]cyclohexyl]amino]acetyl]-2-cyano-(S)-pyrrolidine] | 165 to 167
N#C[C@@H]1CCCN1C(=O)CN[C@H]1CC[C@H](NS(=O)(=O)c2ccc(Cl)cc2)CC1 (as salt: hydrochloride) [Ex. 2Q, 1-[[[[4-[(4-chlorophenyl)sulfonyl]amino]cyclohexyl]amino]acetyl]-2-cyano-(S)-pyrrolidine] | 160 to 162
N#C[C@@H]1CCCN1C(=O)CN[C@H]1CC[C@H](Oc2cccc(Cl)c2)CC1 (as salt: hydrochloride) [Ex. 2HH] | 72 to 74
N#C[C@@H]1CCCN1C(=O)CNC1CCC(NC(=O)c2ccccc2)CC1 (stereo partly drawn) [Ex. 2N, 1-[[[4-(benzoylamino)cyclohexyl]amino]acetyl]-2-cyano-(S)-pyrrolidine] | 78 to 80
N#C[C@@H]1CCCN1C(=O)CNC1CCC(Nc2ccnc(Cl)n2)CC1 (stereo partly drawn) (as salt: hydrochloride) [Ex. 2S, 1-[[[4-[(2-chloro-4-pyrimidinyl)amino]cyclohexyl]amino]acetyl]-2-cyano-(S)-pyrrolidine] | 290 to 293
CC(C)(Cc1ccc(F)cc1)NCC(=O)N1CCC[C@H]1C#N (as salt: hydrochloride) [Ex. 2BB] | 198 to 200
N#C[C@@H]1CCCN1C(=O)CNC1CCN(C(=O)c2ccc(Cl)cc2)CC1 (as salt: hydrochloride) [Ex. 4B] | 152 to 155
N#C[C@@H]1CCCN1C(=O)CNC1CCN(C(=O)Nc2ccc(Cl)cc2)CC1 (as salt: hydrochloride) [Ex. 2II, 1-[[[1-[[(4-chlorophenyl)amino]carbonyl]-4-piperidinyl]amino]acetyl]-2-cyano-(S)-pyrrolidine] | 172 to 174
N#C[C@@H]1CCCN1C(=O)CNC1CCC(Nc2nc3cc(Cl)ccc3s2)CC1 (stereo partly drawn) (as salt: hydrochloride) [Ex. 2Y, 1-[[[4-[(5-chloro-2-benzothiazolyl)amino]cyclohexyl]amino]acetyl]-2-cyano-(S)-pyrrolidine] | 290 to 294
CC(C)(Cc1ccccc1)NCC(=O)N1CCC[C@H]1C#N (as salt: hydrochloride) [Ex. 2CC, 1-[[(1,1-dimethyl-2-phenylethyl)amino]acetyl]-2-cyano-(S)-pyrrolidine] | 212 to 214
CC(C)N(C(=O)NCC(C)(C)NCC(=O)N1CCC[C@H]1C#N)C(C)C (as salt: hydrochloride) [Ex. 2J, 1-[[[2-[[(diisopropylamino)carbonyl]amino]-1,1-dimethylethyl]amino]acetyl]-2-cyano-(S)-pyrrolidine] | 128 to 130

Source: patent publication US6432969B1, “N-(substituted glycyl)-2 cyanopyrrolidines, pharmaceutical compositions containing them and their use in inhibiting dipeptidyl peptidase-IV” (Novartis AG, priority 2000, dated 2002)
